Data from US20240150377A1, “MODULATORS OF CYSTIC FIBROSIS TRANSMEMBRANE CONDUCTANCE REGULATOR” (VERTEX PHARMACEUTICALS INCORPORATED, priority 2020, published 2024).
Like-named read-outs stand apart in the source and are kept apart here.

Target: CFTR (Homo sapiens, UniProt P13569)
Assay: Membrane potential dye, Enteroid Assay B
Type: cell-based
Conditions: for Ent. B Max Activity: chloride transport as % of triple combination control (Enteroid Assay B); for EC50: read-out: Ent. B EC50
Protocol: Base medium (ADF+++) consisted of Advanced DMEM/Ham's F12, 2 mM Glutamax, 10 mM HEPES, […] penicillin/streptomycin.
Intestinal enteroid maintenance medium (IEMM) consisted of ADF+++, 1× B27 supplement, 1× N2 supplement, 1.25 mM N-acetyl cysteine, 10 mM Nicotinamide, 50 ng/mL hEGF, 10 nM Gastrin, 1 μg/mL hR-spondin-1, 100 ng/mL hNoggin, TGF-b type 1 inhibitor A-83-01, 100 μg/mL Primocin, 10 μM P38 MAPK inhibitor SB202190.
Bath 1 Buffer consisted of 1 mM MgCl2, 160 mM NaCl, 4.5 mM KCl, 10 mM HEPES, 10 mM Glucose, 2 mM CaCl2).
Chloride Free Buffer consisted of 1 mM Magnesium Gluconate, 2 mM Calcium Gluconate, 4.5 mM Potassium Gluconate, 160 mM Sodium Gluconate, 10 mM HEPES, 10 mM Glucose.
BathI Dye Solution consisted of Bath 1 Buffer, 0.04% Pluronic F127, 20 μM Methyl Oxonol, 30 μM CaCCinh-A01, 30 μM Chicago Sky Blue.
Chloride Free Dye Solution consisted of Chloride Free Buffer, 0.04% Pluronic F127, 20 μM Methyl Oxonol, 30 μM CaCCinh-A01, 30 μM Chicago Sky Blue.
Chloride Free Dye Stimulation Solution consisted of Chloride Free Dye Solution, 10 μM forskolin, 100 μM IBMX, and 300 nM Compound III.
Human intestinal epithelial enteroid cells were obtained from the Hubrecht Institute for Developmental Biology and Stem Cell Research, Utrecht, The Netherlands and expanded in T-Flasks as previously described (Dekkers J F, Wiegerinck C L, de Jonge H R, Bronsveld I, Janssens H M, de Winter-de Groot K M, Brandsma A M, de Jong N W M, Bijvelds M J C, Scholte B J, Nieuwenhuis E E S, van den Brink S, Clevers H, van der Ent C K, Middendorp S and M Beekman J M. A functional CFTR assay using primary cystic fibrosis intestinal organoids. Nat Med. 2013 July;19(7):939-45.).
3. Enteroid Cell Harvesting and Seeding
Cells were recovered in cell recovery solution, collected by centrifugation at 650 rpm for 5 min at 4° C., resuspended in TrypLE and incubated for 5 min at 37° C. Cells were then collected by centrifugation at 650 rpm for 5 min at 4° C. and resuspended in IEMM containing 10 μM ROCK inhibitor (RI). The cell suspension was passed through a 40 μm cell strainer and resuspended at 1×10^6 cells/mL in IEMM containing 10 μM RI. Cells were seeded at 5000 cells/well into multi-well plates and incubated for overnight at 37° C., 95% humidity and 5% CO2 prior to assay.
5. Membrane Potential Dye, Enteroid Assay B
Enteroid cells were incubated with test compound in IEMM for 18-24 hours at 37° C., 95% humidity and 5% CO2. […] Briefly, cells were washed 5 times in Bath 1 Buffer. Bath 1 Dye Solution was added and the cells were incubated for 25 min at room temperature. Following dye incubation, cells were washed 3 times in Chloride Free Dye Solution. Chloride transport was initiated by addition of Chloride Free Dye Stimulation Solution and the fluorescence signal was read for 15 min. […] Chloride transport was then expressed as a percentage of the chloride transport following treatment with 1 μM (14S)-8-[3-(2-{Dispiro[2.0.2.1]heptan-7-yl}ethoxy)-1H-pyrazol-1-yl]-12,12-dimethyl-2λ^6-thia-3,9,11,18,23-pentaazatetracyclo[17.3.1.111,14.05,10]tetracosa-1(22),5,7,9,19(23),20-hexaene-2,2,4-trione, 3 μM (R)-1-(2,2-difluorobenzo[d][1,3]dioxol-5-yl)-N-(1-(2,3-dihydroxypropyl)-6-fluoro-2-(1-hydroxy-2-methylpropan-2-yl)-1H-indol-5-yl)cyclopropanecarboxamide and 300 nM acute N-[2,4-bis(1,1-dimethylethyl)-5-hydroxyphenyl]-1,4-dihydro-4-oxoquinoline-3-carboxamide triple combination control (% Activity).

[1] = Table 8, human enteroid cells, 18-24 hours, acute 10 μM forskolin and 300 nM ivacaftor

Sequence of CFTR (P13569 with tags, fused parts or gaps DEL508-508): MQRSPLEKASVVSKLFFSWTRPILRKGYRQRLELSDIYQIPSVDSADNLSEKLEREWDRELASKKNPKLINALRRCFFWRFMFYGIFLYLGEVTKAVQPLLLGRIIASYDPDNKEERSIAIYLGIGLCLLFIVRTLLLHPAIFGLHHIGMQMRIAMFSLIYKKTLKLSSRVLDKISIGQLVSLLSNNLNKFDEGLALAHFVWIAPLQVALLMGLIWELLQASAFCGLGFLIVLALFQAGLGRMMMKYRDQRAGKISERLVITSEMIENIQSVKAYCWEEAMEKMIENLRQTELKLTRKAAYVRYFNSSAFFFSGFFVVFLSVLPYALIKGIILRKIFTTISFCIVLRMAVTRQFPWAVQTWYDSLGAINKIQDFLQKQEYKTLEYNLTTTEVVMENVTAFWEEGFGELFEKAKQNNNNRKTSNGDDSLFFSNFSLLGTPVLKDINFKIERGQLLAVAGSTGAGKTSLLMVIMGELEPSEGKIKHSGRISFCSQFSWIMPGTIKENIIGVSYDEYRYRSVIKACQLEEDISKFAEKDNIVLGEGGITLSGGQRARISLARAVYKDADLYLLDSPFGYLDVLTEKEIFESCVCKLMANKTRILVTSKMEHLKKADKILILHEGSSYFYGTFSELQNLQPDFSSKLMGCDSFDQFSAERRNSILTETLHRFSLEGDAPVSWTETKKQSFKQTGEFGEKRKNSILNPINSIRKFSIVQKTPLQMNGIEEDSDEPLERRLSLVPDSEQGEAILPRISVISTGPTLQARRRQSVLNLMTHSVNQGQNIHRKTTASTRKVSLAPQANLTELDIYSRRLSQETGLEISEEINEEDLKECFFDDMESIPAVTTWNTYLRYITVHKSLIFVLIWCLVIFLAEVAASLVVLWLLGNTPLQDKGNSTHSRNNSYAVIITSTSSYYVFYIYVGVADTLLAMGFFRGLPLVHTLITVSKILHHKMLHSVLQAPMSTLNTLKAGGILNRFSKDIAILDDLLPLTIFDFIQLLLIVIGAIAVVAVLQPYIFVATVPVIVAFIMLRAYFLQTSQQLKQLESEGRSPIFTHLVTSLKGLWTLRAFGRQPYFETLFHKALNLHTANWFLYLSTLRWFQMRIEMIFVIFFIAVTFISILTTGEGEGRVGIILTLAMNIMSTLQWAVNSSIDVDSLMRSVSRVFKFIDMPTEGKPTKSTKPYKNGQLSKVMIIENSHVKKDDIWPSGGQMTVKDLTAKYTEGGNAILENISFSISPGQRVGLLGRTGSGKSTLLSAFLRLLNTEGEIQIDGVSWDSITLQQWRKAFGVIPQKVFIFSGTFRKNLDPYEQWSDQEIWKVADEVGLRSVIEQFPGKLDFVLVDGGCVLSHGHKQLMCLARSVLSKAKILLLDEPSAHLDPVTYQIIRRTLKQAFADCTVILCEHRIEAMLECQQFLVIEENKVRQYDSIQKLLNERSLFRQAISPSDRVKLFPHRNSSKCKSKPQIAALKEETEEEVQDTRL

Q: Which results are given for `Cc1cccc(C)c1-c1cc2nc(n1)NS(=O)(=O)c1cccc(c1)C(=O)N(C)CC(c1ccc(CC3(C(F)(F)F)CC3)cn1)O2` (single isomer, unassigned) [Compound 105, 6-(2,6-dimethylphenyl)-12-methyl-10-(5-{[1-(trifluoromethyl)cyclopropyl]methyl}pyridin-2-yl)-9-oxa-2λ^6-thia-3,5,12,19-tetraazatricyclo[12.3.1.14,8]nonadeca-1(17),4(19),5,7,14(18),15-hexaene-2,2,13-trione]?
A: Ent. B Max Activity (Table 8): + (+ is <30%); EC50 [1]: < 1 µM

Q: What does the source list for `Cc1cccc(C)c1-c1cc2nc(n1)NS(=O)(=O)c1cccc(c1)C(=O)N(CC1CCC(C)(O)CC1)[C@H](CC(C)(C)C)CO2` (single isomer, unassigned) [Compound 149]?
A: Ent. B Max Activity (Table 8): +++ (+++ is >60%); EC50 [1]: < 1 µM

Q: Which “Ent. B Max Activity” value (Table 8) does the source give for `Cc1cccc(C)c1-c1cc2nc(n1)NS(=O)(=O)c1cccc(c1)C(=O)N(CC1CCC(C)(O)CC1)[C@H](CC(C)(C)C)CO2` (single isomer, unassigned) [Compound 150] here?
A: +++ (+++ is >60%)

Q: What about the EC50 [1] of the same compound?
A: < 1 µM

Q: Which results are given for `Cc1cccc(C)c1-c1cc2nc(n1)NS(=O)(=O)c1cccc(c1)C(=O)N(CCCOC(F)(F)F)[C@H](CC(C)C)CO2` [Compound 42, (11R)-6-(2,6-Dimethylphenyl)-11-isobutyl-2,2-dioxo-12-[3-(trifluoromethoxy)propyl]-9-oxa-2λ^6-thia-3,5,12,19-tetrazatricyclo[12.3.1.14,8]nonadeca-1(18),4(19),5,7,14,16-hexaen-13-one]?
A: Ent. B Max Activity (Table 8): +++ (+++ is >60%); EC50 [1]: < 1 µM

Q: For `Cc1cccc(C)c1-c1cc2nc(n1)NS(=O)(=O)c1cccc(c1)C(=O)N(CC(C)(C)O)[C@H](CC(C)C)CO2` [Compound 43, (11R)-6-(2,6-Dimethylphenyl)-12-(2-hydroxy-2-methyl-propyl)-11-isobutyl-2,2-dioxo-9-oxa-2λ^6-thia-3,5,12,19-tetrazatricyclo[12.3.1.14,8]nonadeca 1(18),4(19),5,7,14,16-hexaen-13-one], which “Ent. B Max Activity” value (Table 8) is on record?
A: +++ (+++ is >60%)

Q: What about the EC50 [1] of the same compound?
A: < 1 µM

Q: Which “Ent. B Max Activity” value (Table 8) does the source give for `Cc1cccc(C)c1-c1cc2nc(n1)NS(=O)(=O)c1cccc(c1)CN(CCCCO)[C@H](CC(C)C)CO2` [Compound 46, 4-[(11R)-6-(2,6-Dimethylphenyl)-11-isobutyl-2,2-dioxo-9-oxa-2λ^6-thia-3,5,12,19-tetrazatricyclo[12.3.1.14,8]nonadeca-1(18),4(19),5,7,14,16-hexaen-12-yl]butan-1-ol] here?
A: +++ (+++ is >60%)

Q: And the EC50 [1]?
A: < 1 µM

Q: What does the source list for `Cc1cccc(C)c1-c1cc2nc(n1)NS(=O)(=O)c1cccc(c1)C(=O)N(Cc1ccnc(N)c1)[C@H](CC(C)(C)C)CO2` [Compound 61, (11R)-12-[(2-Amino-4-pyridyl)methyl]-6-(2,6-dimethylphenyl)-11-(2,2-dimethylpropyl)-2,2-dioxo-9-oxa-2λ^6-thia-3,5,12,19-tetrazatricyclo[12.3.1.14,8]nonadeca-1(18),4(19),5,7,14,16-hexaen-13-one]?
A: Ent. B Max Activity (%) (Table 9): +++ (+++ is >600%); EC50 (Table 9): < 1 µM

Q: For `Cc1cccc(C)c1-c1cc2nc(n1)NS(=O)(=O)c1cccc(c1)C(=O)N(CC13CC(C(C)(C)O)(C1)C3)[C@H](CC(C)(C)C)CO2` [Compound 69, (11R)-6-(2,6-Dimethylphenyl)-11-(2,2-dimethylpropyl)-12-[[3-(1-hydroxy-1-methyl-ethyl)-1-bicyclo[1.1.1]pentanyl]methyl]-2,2-dioxo-9-oxa-2λ^6-thia-3,5,12,19-tetrazatricyclo[12.3.1.14,8]nonadeca-1(18),4(19),5,7,14,16-hexaen-13-one], which “Ent. B Max Activity (%)” value (Table 9) is on record?
A: +++ (+++ is >600%)

Q: What about the EC50 (Table 9) of the same compound?
A: < 1 µM

Q: How did the “Ent. B Max Activity” value (Table 8) turn out when `Cc1cccc(C)c1-c1cc2nc(n1)NS(=O)(=O)c1cc(nn1C)C(=O)N(Cc1ncccn1)[C@H](CC(C)(C)C)CO2` [Compound 70, (10R)-15-(2,6-Dimethylphenyl)-10-(2,2-dimethylpropyl)-5-methyl-3,3-dioxo-9-(pyrimidin-2-ylmethyl)-12-oxa-3λ^6-thia-2,5,6,9,16,17-hexazatricyclo[11.3.1.14,7]octadeca-1(17),4(18),6,13,15-pentaen-8-one] was run?
A: ++ (++ is 30-60%)

Q: What about the EC50 [1] of the same compound?
A: < 1 µM

Q: With `Cc1cccc(C)c1-c1cc2nc(n1)NS(=O)(=O)c1cccc(n1)C(=O)N(CCCCC(C)(C)O)[C@H](CC(C)(C)C)CO2` [Compound 76, (11R)-6-(2,6-Dimethylphenyl)-11-(2,2-dimethylpropyl)-12-(5-hydroxy-5-methylhexyl)-9-oxa-2λ^6-thia-3,5,12,18,19-pentaazatricyclo[12.3.1.14,8]nonadeca-1(18),4(19),5,7,14,16-hexaene-2,2,13-trione] as the compound, how does the “Ent. B Max Activity” value (Table 8) read?
A: +++ (+++ is >60%)

Q: What about the EC50 [1] of the same compound?
A: < 1 µM

Q: With `Cc1cccc(C)c1-c1cc2nc(n1)NS(=O)(=O)c1cccc(c1)C(=O)N(CCN(C)C(=O)OC(C)C)[C@H](CC(C)C)CO2` [Compound 91, Isopropyl N-[2-[(11R)-6-(2,6-dimethylphenyl)-11-isobutyl-2,2,13-trioxo-9-oxa-2λ^6-thia-3,5,12,19-tetrazatricyclo[12.3.1.14,8]nonadeca-1(18),4(19),5,7,14,16-hexaen-12-yl]ethyl]-N-methyl-carbamate] as the compound, how does the “Ent. B Max Activity” value (Table 7) read?
A: +++ (+++ is >60%)

Q: And the EC50 (Table 7, human enteroid cells, 18-24 hours, acute 10 μM forskolin and 300 nM ivacaftor)?
A: < 1 µM

Q: Which results are given for `Cc1cccc(C)c1-c1cc2nc(n1)NS(=O)(=O)c1cccc(c1)C(=O)N(CCCC(=O)N(C)C)[C@H](CC(C)C)CO2` [Compound 92, 4-[(11R)-6-(2,6-Dimethylphenyl)-11-isobutyl-2,2,13-trioxo-9-oxa-2λ^6-thia-3,5,12,19-tetrazatricyclo[12.3.1.14,8]nonadeca-1(18),4(19),5,7,14,16-hexaen-12-yl]-N,N-dimethyl-butanamide]?
A: Ent. B Max Activity (Table 8): +++ (+++ is >60%); EC50 [1]: < 1 µM

Q: Which results are given for `Cc1cccc(C)c1-c1cc2nc(n1)NS(=O)(=O)c1cccc(c1)C(=O)N(CCCO)[C@H](CC(C)C)CO2` [Compound 96, (11R)-6-(2,6-Dimethylphenyl)-12-(3-hydroxypropyl)-11-(2-methylpropyl)-9-oxa-2λ^6-thia-3,5,12,19-tetraazatricyclo[12.3.1.14,8]nonadeca-1(18),4,6,8(19),14,16-hexaene-2,2,13-trione]?
A: Ent. B Max Activity (Table 8): +++ (+++ is >60%); EC50 [1]: < 1 µM

Q: For `Cc1cccc(C)c1-c1cc2nc(n1)NS(=O)(=O)c1cccc(c1)C(=O)N(CCCCC(C)(C)O)[C@H](CC(C)(C)C)CO2` [Compound 107, (11R)-6-(2,6-Dimethylphenyl)-11-(2,2-dimethylpropyl)-12-(5-hydroxy-5-methyl-hexyl)-2,2-dioxo-9-oxa-2λ^6-thia-3,5,12,19-tetrazatricyclo[12.3.1.14,8]nonadeca-1(18),4(19),5,7,14,16-hexaen-13-one], which “Ent. B Max Activity” value (Table 8) is on record?
A: +++ (+++ is >60%)

Q: And the EC50 [1]?
A: < 1 µM

Q: Which “Ent. B Max Activity (%)” value (Table 9) does the source give for `Cc1cccc(C)c1-c1cc2nc(n1)NS(=O)(=O)c1cccc(c1)C(=O)N(CCc1ccc(C(C)(C)O)cc1)[C@H](CC(C)(C)C)CO2` [Compound 108, (11R)-6-(2,6-Dimethylphenyl)-11-(2,2-dimethylpropyl)-12-[2-[4-(1-hydroxy-1-methyl-ethyl)phenyl]ethyl]-2,2-dioxo-9-oxa-2λ^6-thia-3,5,12,19-tetrazatricyclo[12.3.1.14,8]nonadeca-1(18),4(19),5,7,14,16-hexaen-13-one] here?
A: +++ (+++ is >600%)

Q: And the EC50 (Table 9)?
A: < 1 µM
